Laboratory results from ChEMBL document CHEMBL1201862, “PubChem BioAssay data set” (2004).
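Assay format: 96-well plates, 48-hour exposure. GI50: concentration for 50% inhibition of growth.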 Activity calls are given as the source filed them. Cut-off read from the data, not from the text of the source: active = GI50 up to about 1.1 µM and inactive = higher.

Tests used:
Assay in all cases: growth of human tumour cells (NCI), 48 h
[1] = tested on: MOLT-4
[2] = tested on: BT-549
[3] = tested on: K562
[4] = tested on: SF-268
[5] = tested on: M14
[6] = tested on: KM12
[7] = tested on: A498
[8] = tested on: RPMI-8226
[9] = tested on: UACC-62
[10] = tested on: IGROV-1
[11] = tested on: NCI-H23
[12] = tested on: NCI-H460
[13] = tested on: A549
[14] = tested on: SK-OV-3
[15] = tested on: U-251
[16] = tested on: SN12C
[17] = tested on: SK-MEL-5
[18] = tested on: OVCAR-3
[19] = tested on: ACHN
[20] = tested on: SR

| Structure (SMILES) | GI50 [1] | GI50 [2] | GI50 [3] | GI50 [4] | GI50 [5] | GI50 [6] | GI50 [7] | GI50 [8] | GI50 [9] | GI50 [10] | GI50 [11] | GI50 [12] | GI50 [13] | GI50 [14] | GI50 [15] | GI50 [16] | GI50 [17] | GI50 [18] | GI50 [19] | GI50 [20] |
| --- | --- | --- | --- | --- | --- | --- | --- | --- | --- | --- | --- | --- | --- | --- | --- | --- | --- | --- | --- | --- |
| c1ccc2c(c1)C(=Nc1ccc(N=C3c4ccccc4-c4ccccc43)cc1)c1ccccc1-2 | > 100 µM (inactive) | > 100 µM (inactive) | > 100 µM (inactive) | > 100 µM (inactive) | > 100 µM (inactive) | > 100 µM (inactive) | > 100 µM (inactive) | > 100 µM (inactive) | > 100 µM (inactive) | > 100 µM (inactive) | > 100 µM (inactive) | > 100 µM (inactive) | > 100 µM (inactive) | > 100 µM (inactive) | > 100 µM (inactive) | > 100 µM (inactive) | > 100 µM (inactive) | > 100 µM (inactive) | – | – |
| COc1ccc(C2SC(=N)Nc3c2c(C)nn3C(=O)c2ccccc2O)cc1 (centres undefined) | 1.81 µM (inactive) | 1.16 µM (inactive) | 0.45 µM (active) | 0.885 µM (active) | 1.67 µM (inactive) | 2.89 µM (inactive) | – | 1.56 µM (inactive) | 0.583 µM (active) | 0.497 µM (active) | 0.933 µM (active) | 3.72 µM (inactive) | 0.412 µM (active) | 5.32 µM (inactive) | 0.9 µM (active) | 2.44 µM (inactive) | 2.59 µM (inactive) | 1.96 µM (inactive) | 0.374 µM (active) | – |
| O=C1CSC2=NCC3(NN12)c1ccccc1-c1ccccc13 | > 10 µM (inactive) | > 10 µM (inactive) | > 10 µM (inactive) | > 10 µM (inactive) | > 10 µM (inactive) | > 10 µM (inactive) | – | > 10 µM (inactive) | > 10 µM (inactive) | > 10 µM (inactive) | > 10 µM (inactive) | > 10 µM (inactive) | > 10 µM (inactive) | > 10 µM (inactive) | – | > 10 µM (inactive) | > 10 µM (inactive) | – | > 10 µM (inactive) | > 10 µM (inactive) |
| CC(C)=NN/C(=N\c1ccc(Cl)cc1)NS(=O)(=O)c1ccc(Oc2cccc(Cl)c2C#N)cc1 | > 100 µM (inactive) | > 100 µM (inactive) | > 100 µM (inactive) | > 100 µM (inactive) | > 100 µM (inactive) | > 100 µM (inactive) | – | > 100 µM (inactive) | > 100 µM (inactive) | > 100 µM (inactive) | > 100 µM (inactive) | > 100 µM (inactive) | > 100 µM (inactive) | – | > 100 µM (inactive) | > 100 µM (inactive) | > 100 µM (inactive) | > 100 µM (inactive) | – | – |
| COc1cc(/C=C2\CC3C4CC=C5C[C@@H](O)CC[C@]5(C)C4CC[C@]3(C)\C2=N\O)cc(OC)c1OC (some centres undefined) | 29.2 µM (inactive) | 7 µM (inactive) | 34.4 µM (inactive) | 8.02 µM (inactive) | 10.5 µM (inactive) | 2.54 µM (inactive) | 6.93 µM (inactive) | 10.4 µM (inactive) | 9.06 µM (inactive) | 13 µM (inactive) | 7.16 µM (inactive) | 4.99 µM (inactive) | 4.65 µM (inactive) | 23.7 µM (inactive) | 6.28 µM (inactive) | 7.13 µM (inactive) | 4.4 µM (inactive) | 7.29 µM (inactive) | 3.2 µM (inactive) | – |
| Cc1cccc(N2C(=O)C3c4[nH]c5ccccc5c4C4CCC(C(C)(C)C)CC4C3C2=O)c1 (centres undefined) | 8.83 µM (inactive) | 19 µM (inactive) | 5.89 µM (inactive) | 4.27 µM (inactive) | 13.3 µM (inactive) | 11.9 µM (inactive) | 13.1 µM (inactive) | 12.7 µM (inactive) | 19.5 µM (inactive) | 4.13 µM (inactive) | 16 µM (inactive) | 6.19 µM (inactive) | 10.6 µM (inactive) | – | 17.3 µM (inactive) | 14.2 µM (inactive) | 15.1 µM (inactive) | 14 µM (inactive) | 4.95 µM (inactive) | – |
| CSc1ccc(C=C2N=C(c3ccccc3)N(c3cc(C(=O)c4ccccc4)ccc3N3C(=O)/C(=C/c4ccc(SC)cc4)N=C3c3ccccc3)C2=O)cc1 | 23.7 µM (inactive) | 45.6 µM (inactive) | 46 µM (inactive) | 53.2 µM (inactive) | 76.9 µM (inactive) | 40 µM (inactive) | 71.8 µM (inactive) | 25.4 µM (inactive) | 44.9 µM (inactive) | 81.3 µM (inactive) | – | 51.2 µM (inactive) | 43.5 µM (inactive) | > 100 µM (inactive) | 27 µM (inactive) | 76.6 µM (inactive) | 37.6 µM (inactive) | 22.2 µM (inactive) | 52.4 µM (inactive) | – |
| O=C(CCCl)NN=C1NCCCCN1 | > 100 µM (inactive) | > 100 µM (inactive) | > 100 µM (inactive) | > 100 µM (inactive) | > 100 µM (inactive) | > 100 µM (inactive) | – | > 100 µM (inactive) | > 100 µM (inactive) | > 100 µM (inactive) | > 100 µM (inactive) | > 100 µM (inactive) | > 100 µM (inactive) | > 100 µM (inactive) | > 100 µM (inactive) | > 100 µM (inactive) | > 100 µM (inactive) | > 100 µM (inactive) | > 100 µM (inactive) | > 100 µM (inactive) |
| COc1ccc(C2=Nn3c(nnc(Cc4ccc(Cl)cc4)c3=O)SC2)cc1 | 26.7 µM (inactive) | 41.8 µM (inactive) | 24.3 µM (inactive) | > 100 µM (inactive) | 31.5 µM (inactive) | 35.8 µM (inactive) | 30.8 µM (inactive) | 23.1 µM (inactive) | 32.4 µM (inactive) | 51.1 µM (inactive) | 35.4 µM (inactive) | 37.8 µM (inactive) | 51.3 µM (inactive) | 55.3 µM (inactive) | 40.3 µM (inactive) | 61.2 µM (inactive) | 75.3 µM (inactive) | 28.2 µM (inactive) | 64.7 µM (inactive) | – |
| O=C1Oc2ccccc2C(=O)/C1=C/N1C(=O)/C(=C/c2ccc3c(c2)OCO3)SC1=S | 17.5 µM (inactive) | – | 16.6 µM (inactive) | 13.7 µM (inactive) | 17.9 µM (inactive) | 16.8 µM (inactive) | 3.99 µM (inactive) | 14.1 µM (inactive) | 28.2 µM (inactive) | 13.6 µM (inactive) | 11.8 µM (inactive) | 16.8 µM (inactive) | 18.1 µM (inactive) | 22.5 µM (inactive) | 10 µM (inactive) | 18.2 µM (inactive) | 15.7 µM (inactive) | 0.405 µM (active) | 11.8 µM (inactive) | 15.8 µM (inactive) |
| C/C(=N\NC(=O)CC#N)C(CN1CCCCC1)C(c1ccccc1)c1c(O)c2ccccc2oc1=O (centres undefined) | 26.5 µM (inactive) | 54.2 µM (inactive) | 55 µM (inactive) | > 100 µM (inactive) | 68.5 µM (inactive) | 39.5 µM (inactive) | 21.7 µM (inactive) | 33.7 µM (inactive) | 45.4 µM (inactive) | 77.6 µM (inactive) | 46.2 µM (inactive) | – | 45.7 µM (inactive) | 64 µM (inactive) | 58.6 µM (inactive) | – | 51.2 µM (inactive) | 47.5 µM (inactive) | 35 µM (inactive) | – |
| CC1=C(/C=C/C(C)=C/C=C/C(C)=C/C(=O)OC2CC(n3cc(F)c(=O)[nH]c3=O)OC2CO)C(C)(C)CCC1 (centres undefined) | 0.2 µM (active) | 1.58 µM (inactive) | 1.63 µM (inactive) | 0.252 µM (active) | 1.35 µM (inactive) | 12.2 µM (inactive) | – | 0.254 µM (active) | 0.184 µM (active) | 7.13 µM (inactive) | 2.75 µM (inactive) | 0.0429 µM (active) | 0.153 µM (active) | 2.05 µM (inactive) | 1.2 µM (inactive) | 4.5 µM (inactive) | 1.18 µM (inactive) | 4.72 µM (inactive) | 0.082 µM (active) | 0.247 µM (active) |
| O=C(O)CSc1nnc(-c2ccc(O)cc2)[nH]1 | > 100 µM (inactive) | – | > 100 µM (inactive) | > 100 µM (inactive) | > 100 µM (inactive) | > 100 µM (inactive) | > 100 µM (inactive) | > 100 µM (inactive) | > 100 µM (inactive) | > 100 µM (inactive) | > 100 µM (inactive) | > 100 µM (inactive) | > 100 µM (inactive) | > 100 µM (inactive) | > 100 µM (inactive) | > 10 µM (inactive) | > 100 µM (inactive) | > 100 µM (inactive) | > 100 µM (inactive) | > 100 µM (inactive) |
| Cc1ccc(O)c(-c2cc(-c3cccc(Cl)c3)c(C#N)c(N)n2)c1 | 12.8 µM (inactive) | 36.3 µM (inactive) | 21.5 µM (inactive) | 18.6 µM (inactive) | 20.9 µM (inactive) | 19.6 µM (inactive) | – | 19.6 µM (inactive) | 16.1 µM (inactive) | 6.93 µM (inactive) | 25.1 µM (inactive) | 19.6 µM (inactive) | 18.9 µM (inactive) | 21.4 µM (inactive) | 15.6 µM (inactive) | 20.9 µM (inactive) | 14.4 µM (inactive) | 38.5 µM (inactive) | 17.9 µM (inactive) | 10.7 µM (inactive) |
| Cc1ccc(/N=N\c2c(O)ccc3cc(S(=O)(=O)O)ccc23)cc1 | > 100 µM (inactive) | > 100 µM (inactive) | > 100 µM (inactive) | > 100 µM (inactive) | > 100 µM (inactive) | > 100 µM (inactive) | > 100 µM (inactive) | > 100 µM (inactive) | > 100 µM (inactive) | > 80.2 µM (inactive) | > 100 µM (inactive) | > 100 µM (inactive) | > 100 µM (inactive) | > 100 µM (inactive) | > 100 µM (inactive) | > 100 µM (inactive) | > 100 µM (inactive) | > 100 µM (inactive) | > 100 µM (inactive) | – |
